According to patent US10849912B2, “Method of sensitizing cancer cells to the cytotoxic effects of apoptosis inducing ligands in cancer treatment” (The United States of America, as represented by the …, priority 2016, dated 2020):
Entries after “also recorded” stand apart in the source; their conditions may differ.

Experiments:
[1] = tested on: melanoma cells (M14, SK-MEL-28, UACC-62, SK-MEL-5, MALME-3M); assay: Sensitization of melanoma cells to TRAIL apoptosis, percentage decrease in cell number; assay type: cell-based; details: for percentage decrease in cell number, agent alone: absence of TRAIL, FIGS. 18B-22B, 18C-22C
Excerpt: (§1) This example provides a comparison of the activities of compound 1 with the Smac mimetics birinapant, GDC-0152, and LCL-161 and with the Bcl-2 antagonists ABT-199 and ABT-737 for sensitization of renal carcinoma and melanoma cells to TRAIL apoptosis.
(§2) The results for compound 1 are shown graphically in FIGS. 13A-22A. The results for Smac mimetics birinapant, GDC-0152, and LCL-161 are shown graphically in FIGS. 13B-22B. The results for Bcl-2 antagonists ART-199 and ABT-737 are shown graphically in FIGS. 13C-22C, FIGS. 13A-22A, 13B-22B, and 13C-22C depict the percentage decrease in cell number as a function of concentration. For FIGS. 13B-22B and 13C-22C, the dose response curve was obtained for one of the listed agents.

[2] = tested on: renal carcinoma cell lines (ACHN, SN12C, Caki-1, TK-10, UO-31); assay: Sensitization of renal carcinoma cells to TRAIL apoptosis, percentage decrease in cell number; assay type: cell-based; details: for percentage decrease in cell number, agent alone: absence of TRAIL, FIGS. 13B-17B, 13C-17C
Excerpt: as §1, §2

Malme 3M melanoma cells = assay: Titration of sensitization to TRAIL, MTS cell viability; assay type: cell-based, human; details: Malme (Malme 3M); compound 0.97 nM-2000 nM for 3 or 24 h, then 10 ng/ml TRAIL for 24 h
Method: (§3) For all experiments, cells (ACHN (renal carcinoma), M14, SK MEL28, and Malme (human melanoma lines)) were plated at a concentration of 5000 cells/well overnight. All treatments were carried out the following day.
(§4) For titration experiments in the presence or absence of TRAIL, cells were treated with various doses of compound 8 (0.97 nM-2000 nM) for 3 or 24 h followed by 10 ng/ml of recombinant TRAIL for 24 h. Cell viability was assessed by addition of MTS during the last four hours of TRAIL treatment. The results with SK MEL28, M14, and Malme cells are depicted in FIGS. 7A-7C, respectively.
(§5) Titration experiments were conducted as described in Example 5.

M14 melanoma cells = assay: as above; assay type: cell-based, human; details: compound 0.97 nM-2000 nM for 3 or 24 h, then 10 ng/ml TRAIL for 24 h
Method: as §3, §4, §5

SK MEL28 melanoma cells [3] = assay: as above; assay type: cell-based, human; details: compound 0.97 nM-2000 nM for 3 or 24 h, then 10 ng/ml TRAIL for 24 h
Method: as §3, §4

SK MEL28 melanoma cells [4] = assay: Effect of bafilomycin on sensitization to poly IC, MTS cell viability; assay type: cell-based, human; details: 50 nM bafilomycin A, poly IC 36-48 h
Method: as §3
To inhibit TLR 3 signaling, cells were treated with compound 9, compound 1, or compound 10 for 4 hours followed by addition of 50 nM of Balfilomycin A or DMSO for 2.5 h. Subsequently poly IC was added for 36-48 h and cell viability was assessed by addition of MTS during the last four hours of Poly IC treatment. The results for compounds 9, 1, and 10 are depicted in FIG. 6.

cFLIP = assay: Western blot of cFLIP levels in ACHN cells treated with compound, with or without poly IC; assay type: cell-based; details: compound 125 nM-1 μM overnight, FIGS. 5A and 5B
Method: (§6) ACHN cells were grown in RPMI (RPMI, 5% FBS, Pen-strep, NEAA, HEPES, Glutamax, Sodium Pyruvate, 2ME), 2×10^6 cells/well were plated in 6 well plates and grown overnight, on day 2 compound 9 or compound 1 were added, including duplicate plates and incubated overnight. On day 3 either media or 10 ug/ml polyIC was added for 3 hours. Cells were lysed in RIPA buffer (30 mM Tris-HCL pH 7.5, 150 mM NaCl, 10% glycerol, 1% Triton X-100) supplemented with Pierce Halt Protease and Phosphatase Inhibitor and 40 μM ZVAD, the RIPA buffer also contained Pierce Universal Nuclease. Protein concentrations were measured using the Pierce BCA Protein Assay (Thermo Fisher Scientific, Waltham, Mass.), Twenty micrograms of each sample was run on a Bolt Gel (Thermo Fisher Scientific), transferred to a PVDF membrane using the BioRad Trans-Blot Turbo Transfer System (BioRad, Hercules, Calif.), briefly placed in Methanol, dried, rehydrated, and blocked in Pierce Start Block buffer. […]

human M14 melanoma = assay: Xenograft model of human M14 melanoma, intratumoral compound; assay type: in vivo, athymic nude mice; details: 20 mg/Kg, once per week for four weeks
Method: Female nude athymic mice were obtained from Charles River Laboratory. All mice were kept under specific pathogen-free conditions with water and food given ad libitum. All experiments with mice were performed in compliance with the principles and procedures outlined in the National Institutes of Health Guide for the Care and Use of Animals and were approved by the National Cancer Institute at Frederick Animal Care and Use Committee.
For in vivo treatments with compounds 9 and 1, compound 9 and compound 1 stock solutions (0.5M and 0.25M in DMSO respectively) were diluted in 33% Trappsol and DMSO at a ratio of 7:1 and administered intratumorally or at the base of tumor in a volume of 20 ul at a dose of 20 mg/Kg of body weight. […]
Mice (nude athymic, female, 6-8-week old, n=5), were implanted subcutaneously with 0.2 ml of M14 melanoma cells (1×10^6/mouse) into the right flank. […] The appearance and growth of tumors were monitored twice every week. The greatest longitudinal diameter (length) and the greatest transverse diameter (width) of a palpable tumor were measured to the nearest 0.1 mm using a caliper. Tumor volume (mm^3) was calculated by the ellipsoidal formula Tumor volume=[…]. […]

SKMEL28 melanoma cells = assay: Effect of pan caspase inhibitor ZVAD-FMK on growth inhibition by poly IC plus compound, MTS; assay type: cell-based, human; details: compound 1000 nM for 16-18 h, ZVAD-FMK 40 μM for 2 h, poly IC 20-24 h
Method: To assess the effects of pan caspase inhibitor ZVAD, SKMEL28 melanoma cells were treated with compounds 9 and 1 for 16-18 h. Subsequently, ZVAD-FMK (40 μM) or DMSO was added for 2 h followed by 20-24 h incubation in the presence or absence of poly IC. Cell viability was assessed by addition of MTS during the last four hours of poly IC treatment.
The growth inhibition as a function of poly IC concentration at 1000 nM concentrations of compounds 9 and 1 was determined, and the results shown in FIGS. 10A and 10B, respectively.

caspase-8 = assay: Western blot of caspase-8 activation in ACHN cells treated with compound, with or without poly IC; assay type: cell-based; details: compound 125 nM-1 μM overnight, then 10 ug/ml polyIC for 3 hours
Method: as §6

## CC1(C)CCC(CN2CCN(c3ccc(C(=O)NS(=O)(=O)c4ccc(NCC5CCOCC5)c([N+](=O)[O-])c4)c(Oc4cnc5[nH]ccc5c4)c3)CC2)=C(c2ccc(Cl)cc2)C1 [ABT-199]
[1]
  percentage decrease in cell number, agent alone: little to no response due to concentration
[2]
  percentage decrease in cell number, agent alone: little to no response due to concentration

## CN[C@@H](C)C(=O)N[C@H](C(=O)N1CCC[C@H]1c1nc(C(=O)c2ccc(F)cc2)cs1)C1CCCCC1 [LCL-161]
[1]
  percentage decrease in cell number, agent alone: little to no response due to concentration
[2]
  percentage decrease in cell number, agent alone: little to no response due to concentration

## CC1=C(C)C(=O)OC([C@](C)(O)[C@]2(O)CC[C@@]3(O)C4CC=C5C(=O)C=CC(=O)[C@]5(C)C4CC[C@]23C)C1 (stereo partly shown)
other
  melting point: 176 to 178 °C

## CN(C)CC[C@H](CSc1ccccc1)Nc1ccc(S(=O)(=O)NC(=O)c2ccc(N3CCN(Cc4ccccc4-c4ccc(Cl)cc4)CC3)cc2)cc1[N+](=O)[O-] [ABT-737]
[1]
  percentage decrease in cell number, agent alone: little to no response due to concentration
[2]
  percentage decrease in cell number, agent alone: little to no response due to concentration

## CC[C@H](NC(=O)[C@H](C)NC)C(=O)N1C[C@@H](O)C[C@H]1Cc1c(-c2[nH]c3cc(F)ccc3c2C[C@@H]2C[C@H](O)CN2C(=O)[C@H](CC)NC(=O)[C@H](C)NC)[nH]c2cc(F)ccc12 [birinapant]
[1]
  percentage decrease in cell number, agent alone: little to no response due to concentration
[2]
  percentage decrease in cell number, agent alone: little to no response due to concentration

## biotinylated derivative of 4β-hydroxywithanolide E [compound 8]
Malme 3M melanoma cells
  sensitization to apoptosis by TRAIL: sensitized; also recorded: more potent than compound 1 at lower concentrations
M14 melanoma cells
  sensitization to apoptosis by TRAIL: sensitized; also recorded: more potent than compound 1 at lower concentrations
SK MEL28 melanoma cells [3]
  sensitization to apoptosis by TRAIL: sensitized

## CN[C@@H](C)C(=O)N[C@H](C(=O)N1CCC[C@H]1C(=O)Nc1snnc1-c1ccccc1)C1CCCCC1 [GDC-0152]
[1]
  percentage decrease in cell number, agent alone: little to no response due to concentration
[2]
  percentage decrease in cell number, agent alone: little to no response due to concentration

## CC(=O)OC[C@]12CC[C@H]3[C@@H](C[C@H]4O[C@]45CC=CC(=O)[C@]35C)[C@]1(O)CC[C@@]2(O)[C@@](C)(O)[C@H]1CC(C)=C(C)C(=O)O1 [compound 1, physachenolide C]
[1]; 25 ng/mL TRAIL
  sensitization to TRAIL apoptosis: significant activity
SK MEL28 melanoma cells [4]
  apoptosis by the compound and poly IC combination after incubation with bafilomycin-A1: significantly reduced subsequent apoptosis
cFLIP
  reducing the levels of cFLIPL+S: more active than compound 9
[2]; 50 ng/mL TRAIL
  sensitization to TRAIL apoptosis: superior sensitizer
Human M14 melanoma
  observation at the tumor site accompanying decrease in tumor burden: massive tumor destruction and scabbing at the tumor site
Human M14 melanoma; versus vehicle control, ****P<0.0001, 20 mg/kg
  tumor growth and volume (tumor burden): significant reduction in tumor growth and volume
SKMEL28 melanoma cells
  reduction in cell number by poly IC in combination with compound, in presence of ZVAD-FMK: completely blocked
caspase-8
  promoting caspase-8 activation in response to subsequent exposure to poly IC: more active than compound 9
